Source: patent US4841044A, “Cephalosporin derivatives” (Taisho Pharmaceutical Co., Ltd., priority 1985, dated 1989)
Values after ≈ are worked out from the molar mass of the structure shown. Where two headings read alike, the source gives them in different places.

Assays:
[1] = tested on: Klebsiella pneumoniae IFO 3317; experiment: Antibacterial activity (MIC), agar plate dilution method; format: cell-based
Procedure: (§1) The antibacterial activity of the compounds of the present invention against various bacteria (inoculum size: 10^6 cells/ml) were tested by the agar plate dilution method, and the results are shown in the following Table 1.

[2] = tested on: Proteus mirabilis IFO 3849; experiment: as above; format: cell-based
Procedure: as §1

[3] = tested on: Escherichia coli NIHJ JC-2; experiment: as above; format: cell-based
Procedure: as §1

[4] = tested on: Serratia marcescens IID 618; experiment: as above; format: cell-based
Procedure: as §1

in vivo = settings: rat, blood, oral, 50 mg/kg, male wister rats (7 weeks old), bioassay (Escherichia coli SC507); for concentration at 4 h: Four Hours; for concentration at 1 h: One Hour; for concentration at 2 h: Two Hours
Procedure: Male wister rats (7 weeks old) were administered orally with the test compound, and the change of the concentration of the compound in blood was measured.
Dosage of the test compound:
Quantitative method: Bioassay
(test bacterium: Escherichia coli SC507)

Structure (SMILES) | MIC ([1]; Klebsiella pneumoniae, IFO3317) [µg/mL] | MIC ([2]; Proteus mirabilis, IFO3849) [µg/mL] | MIC ([3]; Escherichia coli, NIHJJC2) [µg/mL] | MIC ([4]; Serratia marcescens, IID618) [µg/mL] | concentration at 4 h (in vivo) [ng/mL] | concentration at 1 h (in vivo) [ng/mL] | concentration at 2 h (in vivo) [ng/mL] | MIC ([1]; Klebsiella pneumoniae IFO 3317, inoculum size: 10^6 cells/ml, agar plate dilution) [µg/mL] | MIC ([2]; Proteus mirabilis IFO 3849, inoculum size: 10^6 cells/ml, agar plate dilution) [µg/mL] | MIC ([3]; Escherichia coli NIHJ JC-2, inoculum size: 10^6 cells/ml, agar plate dilution) [µg/mL] | MIC ([4]; Serratia marcescens IID 618, inoculum size: 10^6 cells/ml, agar plate dilution) [µg/mL] | MIC ([1]; IFO3317, Klebsiella pneumoniae IFO 3317, inoculum size: 10^6 cells/ml, agar plate dilution, read-out: MIC) [µg/mL] | MIC ([2]; IFO3849, Proteus mirabilis IFO 3849, inoculum size: 10^6 cells/ml, agar plate dilution, read-out: MIC) [µg/mL] | MIC ([3]; NIHJJC2, Escherichia coli NIHJ JC-2, inoculum size: 10^6 cells/ml, agar plate dilution, read-out: MIC) [µg/mL] | MIC ([4]; IID618, Serratia marcescens IID 618, inoculum size: 10^6 cells/ml, agar plate dilution, read-out: MIC) [µg/mL]
CCNC(=O)/C=C\SC1=C(C(=O)[O-])N2C(=O)[C@@H](NC(=O)/C(=N\OCC(=O)[O-])c3csc(N)n3)[C@H]2SC1.[Na+].[Na+] | 0.05 | 0.025 | 0.39 | 0.39 | 24200 | 26800 | 34300 | – | – | – | – | – | – | – | –
CN(C)C(=O)/C=C\SC1=C(C(=O)[O-])N2C(=O)[C@@H](NC(=O)/C(=N\OCC(=O)O)c3csc(N)n3)[C@H]2SC1.[Na+] [A, 7β-{α-(2-aminothiazole-4-yl)-α-[(Z)-carboxymethoxyimino]acetamido}-3-[(Z)-2-N,N-dimethylaminocarbonylvinylthio]-3-cephem-4-carboxylic acid sodium salt] | – | – | – | – | – | – | – | 0.05 | < 0.025 | 0.2 | 0.2 | – | – | – | –
CNC(=O)/C=C\SC1=C(C(=O)O)N2C(=O)[C@@H](NC(=O)/C(=N\OCC(=O)O)c3csc(N)n3)[C@H]2SC1 [C] | – | – | – | – | 22400 | 20800 | 26600 | – | – | – | – | 0.05 (≈ 0.0922 µM) | 0.025 (≈ 0.0461 µM) | 0.2 (≈ 0.369 µM) | 0.39 (≈ 0.719 µM)
CC1=C(C(=O)O)N2C(=O)[C@@H](NC(=O)[C@H](N)c3ccccc3)[C@H]2SC1 [YY, Cefalexin, reference compound] | 6.25 (≈ 18 µM) | 12.5 (≈ 36 µM) | 12.5 (≈ 36 µM) | > 100 | – | – | – | – | – | – | – | – | – | – | –
